This is an account of results in article PMC9045296, “Development of Antifungal Peptides against Cryptococcus neoformans; Leveraging Knowledge about the cdc50Δ Mutant Susceptibility for Lead Compound Development” (Microbiology Spectrum, 2022).

≈ marks a conversion by molar mass, not a printed value. Residues, ends and D or L forms follow the SMILES beside them. *: point of attachment. Palmitoyl = CCCCCCCCCCCCCCCC(=O)*; Myristoyl = CCCCCCCCCCCCCC(=O)*; Decanoyl = CCCCCCCCCC(=O)*; Hexanoyl = CCCCCC(=O)*

Format in all cases: cell-based, Cryptococcus neoformans
Test [1] has as its system exofacial PS on C. neoformans cells. In words: AF350-annexin V flow cytometry assay. Conditions: 0.128 mg/mL peptide, 5*10^6 cell/mL, 20 min at 25°C, triplicate; control 0.2 ± 0.1%. From the text: We sought to determine whether the activities of the peptides were related to the lipid-flipping activity of the P4-ATPase. […] The intensity of the AF350-annexin V signal corresponds to concentration of PS on the exofacial side of the membrane. The propidium iodine signal corresponds to cell viability. […] Single cells were first selected and gated based on morphology to ensure homogeneity among the cell population (4A, 4B). We examined cells with low propidium iodine intensity (PI-A < 9 RU) and high AF350-annexin V intensity (Annexin V-A > 9 RU) (4C, 4D). Under these gating parameters there should be, respectively, low nonspecific cell death and high exofacial PS.
Stock microbes were defrosted from the –80°C freezer and were passed twice for 48 h each in YPD media. The YPD media was removed by spinning down and the supernatant was decanted. Pelletized cells were resuspended in 1 mL PBS media and washed for 5 min with incubation at 25°C and 250 RPM. Washed cells were spun down again and suspended in 1 mL of PBS solution. cells were diluted 20-fold into 1 mL fungal working solution in an eppendorf. Cell concentration was quantified via comparison to 1X McFarlain’s standard on a plate reader using the absorbance value at 530 nm. An aliquot of 1*10^6 cells in 100 μL was created (1*10^7cell/mL). A 100 μL aliquot of peptide working solution at 0.256 mg/mL was added to the cell suspension for final operating parameters of 200 μL, 0.128 mg/mL peptide, and 5*10^6cell/mL. The cells were incubated for 20 min at 25°C and 250RPM. Baseline and experimental samples were prepared in triplicate. Cells were stained using an operating concentration of 0.001 mg/mL Propidium Iodine (PI) and a 40-fold dilution of Alexa Fluor 350 labeled annexin V as per manufactures instructions. After staining the cells, samples were spun down and supernatant decanted. Cells were then fixed in 4% formaldehyde for 5 min. Fixed cells were spun down and supernatant decanted and resuspended in 400 μL 1% formaldehyde for flowcytometry. Samples were collected at a slow flow rate on a MACS Quant 10 device (Miltenyi Biotech, Auburn, CA) with 50,000 events collected per injection.
(A flow cytometer gives signals particle by particle.)

For test [2], the system named is C. neoformans wild-type strain H99. The test is described as follows: microbe, parasite or virus in culture. Conditions: for MIC: drug alone, H99 wild type, CLSI broth microdilution, RPMI, 2.5*10^3 cells/mL, 37°C, read at 24 and 48 h; for MIC H99: Table S1, drug alone, wild type H99. The procedure: (§1) Our assays followed standard CLSI protocol for broth microdilution assays using yeasts ([32]). Microbes were passaged in YPD media at 37°C with mixing for 2 days before harvesting with an inoculation loop to prepare monocultures on Sabouraud Dextrose Agar (SDA) plates. Monocultures on SDA plates were incubated for 2 days at 37°C before harvesting cells for microdilution assays. RPMI media (100 μL) was charged to each of the 96 wells in a 96-well plate, with an additional 100 μL in the first column. Peptide-DMSO solution (4 μL) at 12.8 mg/mL was charged to each of the wells in the first column. The 100 μL was serially diluted by a factor of 2 from the first column to the 11th column. Microbe inoculant was then prepared. An inoculation loop was used to transfer 1–3 colonies of cells to 1 mL phosphate buffer solution (PBS). The PBS and microbe solution was made uniform by vortex mixing. Cell concentration was computed by comparing the absorbance at 530 nm to 1x McFarland standard solution and multiplying the resulting ratio by 10^7 cell/mL conversion factor. Plate inoculant was prepared by diluting the PBS microbe solution to 5000 cell/mL, in RPMI media. A 100 μL aliquot of cells was transferred to each of the wells on the plate other than column 11 for the no growth control. The operating volume was 200 μL, with 500 CFU per well for a final concentration of 2.5*10^3 cells/mL. Inoculated plates were incubated for 48 h at 37°C and read at 24 and 48 h ([33]).
A general note: Dilution methods test growth across graded concentrations, often in twofold steps.

The subject of another test is C. neoformans H99. Conditions: for FIC H99 Caspofungin: Table S1, concentration of caspofungin in combination with the peptide; for FIC H99 Peptide: Table S1, concentration of peptide in combination with caspofungin. The procedure:
(§2) Again, 200 μL was the operating volume, 500CFU per well, 2.5*10^3 cell/mL. Plates were incubated for 48 h at 37°C and read thereafter. The Fractional Inhibitory Concentration Index were calculated in Equation 1: FICIndex=FICA/MICA+FICB/MICB

The test system of a further test is ΔCDC50 mutant strain. Conditions: for FIC ΔCDC50 Caspofungin: Table S1, concentration of caspofungin in combination with the peptide; for FIC ΔCDC50 Peptide: Table S1, concentration of peptide in combination with caspofungin. The procedure:
as §2

The next test relates to cdc50Δ mutant strain. Conditions: Table S1, drug alone. The procedure:
as §1

Turning to `CCCCCCCCCCCCCC(=O)N[C@@H](Cc1c[nH]c2ccccc12)C(=O)NCC(=O)NCC(=O)N[C@H](C(=O)N[C@@H](C)C(=O)N[C@@H](C)C(=O)N[C@@H](CC(N)=O)C(=O)N[C@@H](Cc1ccc(O)cc1)C(=O)N[C@@H](C)C(=O)O)[C@@H](C)CC` [K5A;K6A-Ma] (Myristoyl-WGGIAANYA-OH), the “percentage of cells with low propidium iodine (PI-A < 9 RU) and high AF350-annexin V intensity (Annexin V-A > 9 RU)” value in test [1] is 1.3 ± 0.9%. Also, the MIC in test [2] is >128 µg/mL.

With H-SESGIAWGGIKKNYA-OH [AS15], in test [2], the “MIC H99” value was > 128 µg/mL. In the test on C. neoformans H99 (H99), the “FIC H99 Caspofungin” value came to 8 µg/mL and the “FIC H99 Peptide” value is 0.5 µg/mL. In addition, in the test on ΔCDC50 mutant strain, the “FIC ΔCDC50 Caspofungin” value came out at 1 µg/mL and the “FIC ΔCDC50 Peptide” value worked out at 0.5 µg/mL.

Consider `CCCCCCCCCCCCCC(=O)N[C@@H](Cc1c[nH]c2ccccc12)C(=O)NCC(=O)NCC(=O)N[C@H](C(=O)N[C@@H](CCCCN)C(=O)N[C@@H](C)C(=O)N[C@@H](CC(N)=O)C(=O)N[C@@H](Cc1ccc(O)cc1)C(=O)N[C@@H](C)C(=O)O)[C@@H](C)CC` [Peptide K6A-Ma] (Myristoyl-WGGIKANYA-OH), for which the MIC in test [2] is >128 µg/mL.

`CCCCCC(=O)N[C@@H](CO)C(=O)N[C@@H](CCC(=O)O)C(=O)N[C@@H](CO)C(=O)NCC(=O)N[C@H](C(=O)N[C@@H](C)C(=O)N[C@@H](Cc1c[nH]c2ccccc12)C(=O)NCC(=O)NCC(=O)N[C@H](C(=O)N[C@@H](CCCCN)C(=O)N[C@@H](CCCCN)C(=O)N[C@@H](CC(N)=O)C(=O)N[C@@H](Cc1ccc(O)cc1)C(=O)N[C@@H](C)C(=O)O)[C@@H](C)CC)[C@@H](C)CC` [AS15-Ha] (Hexanoyl-SESGIAWGGIKKNYA-OH): the “MIC H99” value in test [2] was > 128 µg/mL.

For `CCCCCCCCCCCCCC(=O)N[C@@H](Cc1c[nH]c2ccccc12)C(=O)NCC(=O)NCC(=O)N[C@H](C(=O)N[C@@H](C)C(=O)N[C@@H](CCCCN)C(=O)N[C@@H](CC(N)=O)C(=O)N[C@@H](Cc1ccc(O)cc1)C(=O)N[C@@H](C)C(=O)O)[C@@H](C)CC` [Peptide K5A-Ma] (Myristoyl-WGGIAKNYA-OH), the “percentage of cells with low propidium iodine (PI-A < 9 RU) and high AF350-annexin V intensity (Annexin V-A > 9 RU)” value in test [1] is listed as 5.6 ± 0.1%. For the same compound, the MIC in test [2] is >128 µg/mL.

On to `CCCCCCCCCCCCCCCC(=O)N[C@@H](Cc1c[nH]c2ccccc12)C(=O)NCC(=O)NCC(=O)N[C@H](C(=O)N[C@@H](CCCCN)C(=O)N[C@@H](CCCCN)C(=O)N[C@@H](CC(N)=O)C(=O)N[C@@H](Cc1ccc(O)cc1)C(=O)N[C@@H](C)C(=O)O)[C@@H](C)CC` [AW9-Pa] (Palmitoyl-WGGIKKNYA-OH), for which the “MIC H99” value in test [2] was > 128 µg/mL. For the same compound, the “MIC ΔCDC50” value against cdc50Δ mutant strain came out at 8 µg/mL (≈ 6.28 µM). Also, in the test with C. neoformans H99 (H99, checkerboard, caspofungin alone 16 μg/mL), the “MIC of caspofungin in the presence of 0.5 μg/mL peptide” value was 8 µg/mL. Further, in the test with C. neoformans H99 (Table S1, caspofungin + peptide, H99), the “FIC Index H99” value is reported as 0.5-1. In addition, in the test on C. neoformans H99 (H99), the “FIC H99 Caspofungin” value is 8 µg/mL and the “FIC H99 Peptide” value was found to be 0.5 µg/mL. Besides, in the test with ΔCDC50 mutant strain (Table S1, caspofungin + peptide), the “FIC Index ΔCDC50” value stood at 0.75. In addition, in the test with ΔCDC50 mutant strain, the “FIC ΔCDC50 Caspofungin” value was 2 µg/mL and the “FIC ΔCDC50 Peptide” value was found to be 1 µg/mL.

As for `CCCCCCCCCCCCCCCC(=O)N[C@@H](CO)C(=O)N[C@@H](CCC(=O)O)C(=O)N[C@@H](CO)C(=O)NCC(=O)N[C@H](C(=O)N[C@@H](C)C(=O)N[C@@H](Cc1c[nH]c2ccccc12)C(=O)NCC(=O)NCC(=O)N[C@H](C(=O)N[C@@H](CCCCN)C(=O)N[C@@H](CCCCN)C(=O)N[C@@H](CC(N)=O)C(=O)N[C@@H](Cc1ccc(O)cc1)C(=O)N[C@@H](C)C(=O)O)[C@@H](C)CC)[C@@H](C)CC` [AS15-Pa] (Palmitoyl-SESGIAWGGIKKNYA-OH), the “MIC H99” value in test [2] was > 128 µg/mL. Further, in the test on C. neoformans H99 (H99), the “FIC H99 Caspofungin” value came to 8 µg/mL and the “FIC H99 Peptide” value turned out to be 0.5 µg/mL. In the test with ΔCDC50 mutant strain, the “FIC ΔCDC50 Caspofungin” value was found to be 2 µg/mL and the “FIC ΔCDC50 Peptide” value is 2 µg/mL.

For `CCCCCCCCCC(=O)N[C@@H](CO)C(=O)N[C@@H](CCC(=O)O)C(=O)N[C@@H](CO)C(=O)NCC(=O)N[C@H](C(=O)N[C@@H](C)C(=O)N[C@@H](Cc1c[nH]c2ccccc12)C(=O)NCC(=O)NCC(=O)N[C@H](C(=O)N[C@@H](CCCCN)C(=O)N[C@@H](CCCCN)C(=O)N[C@@H](CC(N)=O)C(=O)N[C@@H](Cc1ccc(O)cc1)C(=O)N[C@@H](C)C(=O)O)[C@@H](C)CC)[C@@H](C)CC` [AS15-Da] (Decanoyl-SESGIAWGGIKKNYA-OH), the “MIC H99” value in test [2] is > 128 µg/mL.

Take `CCCCCCCCCCCCCC(=O)N[C@@H](CO)C(=O)NCC(=O)N[C@H](C(=O)N[C@@H](C)C(=O)N[C@@H](Cc1c[nH]c2ccccc12)C(=O)NCC(=O)NCC(=O)N[C@H](C(=O)N[C@@H](CCCCN)C(=O)O)[C@@H](C)CC)[C@@H](C)CC` [KS9-Ma] (Myristoyl-SGIAWGGIK-OH): in test [2], the “MIC H99” value is > 128 µg/mL.

Turning to H-YVDGFPNLREDEHFQ-OH [QY15], the “MIC H99” value in test [2] was > 128 µg/mL. Besides, in the test on C. neoformans H99 (H99), the “FIC H99 Caspofungin” value worked out at 8 µg/mL and the “FIC H99 Peptide” value is 0.5 µg/mL. In the test with ΔCDC50 mutant strain, the “FIC ΔCDC50 Caspofungin” value is 1 µg/mL and the “FIC ΔCDC50 Peptide” value worked out at 0.5 µg/mL.

Regarding `CCCCCCCCCCCCCC(=O)N[C@@H](CO)C(=O)N[C@@H](CCC(=O)O)C(=O)N[C@@H](CO)C(=O)NCC(=O)N[C@H](C(=O)N[C@@H](C)C(=O)N[C@@H](Cc1c[nH]c2ccccc12)C(=O)NCC(=O)NCC(=O)O)[C@@H](C)CC` [GS9-Ma] (Myristoyl-SESGIAWGG-OH), the “MIC H99” value in test [2] is > 128 µg/mL. The “MIC ΔCDC50” value against cdc50Δ mutant strain is > 128 µg/mL.

As for `CCCCCCCCCCCCCC(=O)N[C@@H](Cc1ccc(O)cc1)C(=O)N[C@H](C(=O)N[C@@H](CC(=O)O)C(=O)NCC(=O)N[C@@H](Cc1ccccc1)C(=O)N1CCC[C@H]1C(=O)N[C@@H](CC(N)=O)C(=O)N[C@@H](CC(C)C)C(=O)N[C@@H](CCCNC(=N)N)C(=O)N[C@@H](CCC(=O)O)C(=O)N[C@@H](CC(=O)O)C(=O)N[C@@H](CCC(=O)O)C(=O)N[C@@H](Cc1c[nH]cn1)C(=O)N[C@@H](Cc1ccccc1)C(=O)N[C@@H](CCC(N)=O)C(=O)O)C(C)C` [QY15-Ma] (Myristoyl-YVDGFPNLREDEHFQ-OH), the “MIC H99” value in test [2] was > 128 µg/mL. In the test with C. neoformans H99 (H99), the “FIC H99 Caspofungin” value stood at 8 µg/mL and the “FIC H99 Peptide” value stood at 0.5 µg/mL. Further, in the test on ΔCDC50 mutant strain, the “FIC ΔCDC50 Caspofungin” value turned out to be 1 µg/mL and the “FIC ΔCDC50 Peptide” value worked out at 0.5 µg/mL.
